Experimental findings from patent US10428044B2, “3-amino-1,5,6,7-tetrahydro-4H-indol-4-ones” (Bayer Pharma Aktiengesellschaft, priority 2014, dated 2019) are described below.

The target of this test is (recombinant) catalytic domain of human Bub1 (amino acids 704-1085) (Homo sapiens (Human), UniProt O43683). Nature of the test: Bub1 kinase assay (TR-FRET). The test is classed as biochemical. Particulars: ATP 10 μM final, peptide substrate 1 μM final, 60 min at 22° C., read-out: Biological Assay: Bub1 kinase assay median IC50. A digest of the protocol: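 Readout was TR-FRET between a Eu-labeled antibody complex recognizing phosphoserine and streptavidin-XL665 on the biotinylated peptide, after EDTA stop and 1 h at 22° C. The kinase reaction ran for 60 min at 22° C. Values are means or medians of repeat tests, from 4-parameter fits normalized to enzyme-free and inhibitor-free controls.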
Chain of (recombinant) catalytic domain of human Bub1 (amino acids 704-1085) (O43683 704-1085): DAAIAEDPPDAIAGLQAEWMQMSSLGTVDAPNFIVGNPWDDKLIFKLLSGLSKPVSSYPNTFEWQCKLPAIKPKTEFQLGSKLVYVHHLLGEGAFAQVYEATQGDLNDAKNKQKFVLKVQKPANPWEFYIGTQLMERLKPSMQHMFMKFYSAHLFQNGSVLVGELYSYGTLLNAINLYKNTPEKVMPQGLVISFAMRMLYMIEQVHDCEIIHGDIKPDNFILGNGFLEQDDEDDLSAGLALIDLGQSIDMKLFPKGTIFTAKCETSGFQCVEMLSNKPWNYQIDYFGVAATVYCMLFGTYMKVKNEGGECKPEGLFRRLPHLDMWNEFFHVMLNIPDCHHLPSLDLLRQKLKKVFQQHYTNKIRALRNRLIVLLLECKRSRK
By IC50 is commonly meant the concentration that inhibits the measured activity by half. Regarding `CC1(C)CC(=O)c2c([nH]c(-c3ccnc(NCCc4ccccc4)c3)c2Nc2ccccc2)C1` [Example 498, 6,6-dimethyl-3-(phenylamino)-2-{2-[(2-phenylethyl)amino]pyridin-4-yl}-1,5,6,7-tetrahydro-4H-indol-4-one], the half-maximal inhibitory concentration (IC50) was 1.26 µM.
As for `O=C1CCCc2[nH]c(-c3ccnc(NCc4ccc(F)cc4)c3)c(Nc3ccccc3)c21` [Example 499, 2-{2-[(4-fluorobenzyl)amino]pyridin-4-yl}-3-(phenylamino)-1,5,6,7-tetrahydro-4H-indol-4-one], the half-inhibitory concentration (IC50) came to 0.83 µM.
Regarding `O=C1CCCc2[nH]c(-c3ccnc(NCc4cncs4)c3)c(Nc3ccccc3)c21` [Example 500, 3-(phenylamino)-2-{2-[(1,3-thiazol-5-ylmethyl)amino]pyridin-4-yl}-1,5,6,7-tetrahydro-4H-indol-4-one], the half-maximal inhibitory concentration (IC50) turned out to be 0.356 µM.
On to `O=C1CCCc2[nH]c(-c3ccnc(NCc4cscn4)c3)c(Nc3ccccc3)c21` [Example 501, 3-(phenylamino)-2-{2-[(1,3-thiazol-4-ylmethyl)amino]pyridin-4-yl}-1,5,6,7-tetrahydro-4H-indol-4-one], for which the half-maximal inhibitory concentration (IC50) came to 0.0967 µM.
The figure for `O=C(COCC(F)(F)F)Nc1cc(-c2[nH]c3c(c2Nc2ccccc2)C(=O)CCC3)ccn1` [Example 502, N-{4-[4-oxo-3-(phenylamino)-4,5,6,7-tetrahydro-1H-indol-2-yl]pyridin-2-yl}-2-(2,2,2-trifluoroethoxy)acetamide] is 0.0144 µM; for `O=C1CCCc2[nH]c(-c3ccncc3)c(Nc3ccccn3)c21` [Example 503, 2-(pyridin-4-yl)-3-(pyridin-2-ylamino)-1,5,6,7-tetrahydro-4H-indol-4-one] it is 0.0361 µM; for `Cn1ccc(C(=O)Nc2cc(-c3[nH]c4c(c3Nc3ccccc3)C(=O)CC(C)(C)C4)ccn2)n1` [Example 504, N-{4-[6,6-dimethyl-4-oxo-3-(phenylamino)-4,5,6,7-tetrahydro-1H-indol-2-yl]pyridin-2-yl}-1-methyl-1H-pyrazole-3-carboxamide] it is 0.00614 µM.
The figure for `CC1(C)CC(=O)c2c([nH]c(-c3ccnc(NC(=O)c4nccs4)c3)c2Nc2ccccc2)C1` [Example 505, N-{4-[6,6-dimethyl-4-oxo-3-(phenylamino)-4,5,6,7-tetrahydro-1H-indol-2-yl]pyridin-2-yl}-1,3-thiazole-2-carboxamide] is 0.0111 µM; for `Cn1cc(C(=O)Nc2cc(-c3[nH]c4c(c3Nc3ccccc3)C(=O)CC(C)(C)C4)ccn2)cn1` [Example 506, N-{4-[6,6-dimethyl-4-oxo-3-(phenylamino)-4,5,6,7-tetrahydro-1H-indol-2-yl]pyridin-2-yl}-1-methyl-1H-pyrazole-4-carboxamide] it is 0.00777 µM; for `CC1(C)CC(=O)c2c([nH]c(-c3ccnc(NCCCCc4ccccc4)c3)c2Nc2ccccc2)C1` [Example 507, 6,6-dimethyl-3-(phenylamino)-2-{2-[(4-phenylbutyl)amino]pyridin-4-yl}-1,5,6,7-tetrahydro-4H-indol-4-one] it is 0.959 µM.
Under `CC1(C)CC(=O)c2c([nH]c(-c3ccnc(NCc4cncs4)c3)c2Nc2ccccc2)C1` [Example 508, 6,6-dimethyl-3-(phenylamino)-2-{2-[(1,3-thiazol-5-ylmethyl)amino]pyridin-4-yl}-1,5,6,7-tetrahydro-4H-indol-4-one] stands 0.193 µM.
Take `CC1(C)CC(=O)c2c([nH]c(-c3ccnc(NCC4CC4)c3)c2Nc2ccccc2)C1` [Example 509, 2-{2-[(cyclopropylmethyl)amino]pyridin-4-yl}-6,6-dimethyl-3-(phenylamino)-1,5,6,7-tetrahydro-4H-indol-4-one]: the concentration for half-maximal inhibition (IC50) stood at 0.221 µM.
Under `CC1(C)CC(=O)c2c([nH]c(-c3ccncc3)c2Nc2cnccc2CO)C1` [Example 510, 3-{[4-(hydroxymethyl)pyridin-3-yl]amino}-6,6-dimethyl-2-(pyridin-4-yl)-1,5,6,7-tetrahydro-4H-indol-4-one] stands 0.0253 µM; under `CC1(C)CC(=O)c2c([nH]c(-c3ccncc3)c2Nc2ncccc2CO)C1` [Example 511, 3-{[3-(hydroxymethyl)pyridin-2-yl]amino}-6,6-dimethyl-2-(pyridin-4-yl)-1,5,6,7-tetrahydro-4H-indol-4-one], 0.0652 µM; under `CC1(C)CC(=O)c2c([nH]c(-c3ccncc3)c2Nc2ccc(Cc3ccccc3)cc2)C1` [Example 513, 3-[(4-benzylphenyl)amino]-6,6-dimethyl-2-(pyridin-4-yl)-1,5,6,7-tetrahydro-4H-indol-4-one], greater than 20 µM.
For the molecule `CC1(C)CC(=O)c2c([nH]c(-c3ccncc3)c2Nc2ccc(Oc3ccccc3)cc2)C1` [Example 514, 6,6-dimethyl-3-[(4-phenoxyphenyl)amino]-2-(pyridin-4-yl)-1,5,6,7-tetrahydro-4H-indol-4-one], the 50% inhibitory concentration (IC50) was greater than 20 µM.
